Strand notation (5' to 3'): a small letter for the sugar, then the base; units joined by * are phosphorothioate-linked, units joined directly phosphodiester-linked; [ ] holds rarer units or linkages, { } end groups; capitals alone tell only the bases. HELM strings list units from the 5' end as sugar, base in round brackets, then linkage (d deoxyribose, r ribose, m 2'-O-methyl, p phosphodiester). [sp] = phosphorothioate linkage; d = 2'-deoxy (DNA); m = 2'-O-methyl
How the values were obtained:
CTNNB1 [1] = assay: HEK293-TLR8, 100 nM ASO, then resiquimod
CTNNB1 [2] = assay: HEK293-TLR7, 100 nM ASO, then resiquimod
LINC-PINT [3] = assay: HEK293-TLR8, 100 nM ASO, then resiquimod
LINC-PINT [4] = assay: HEK293-TLR7, 100 nM ASO, then resiquimod

RNA1{m(A)[sp].m(C)[sp].m(C)[sp].m(A)[sp].m(C)[sp].d(C)[sp].d(C)[sp].d(A)[sp].d(C)[sp].d(T)[sp].d(T)[sp].d(G)[sp].d(G)[sp].d(C)[sp].d(A)[sp].m(G)[sp].m(A)[sp].m(C)[sp].m(C)[sp].m(A)}$$$$
TLR8 potentiation (NF-kB luciferase) (fold of resiquimod alone) (CTNNB1 [1]): 1.71 | TLR7 signal (NF-kB luciferase) (% of resiquimod alone) (CTNNB1 [2]): 63.4

RNA1{m(A)[sp].m(C)[sp].m(C)[sp].m(C)[sp].m(A)[sp].d(A)[sp].d(G)[sp].d(G)[sp].d(C)[sp].d(A)[sp].d(T)[sp].d(C)[sp].d(C)[sp].d(T)[sp].d(G)[sp].m(G)[sp].m(C)[sp].m(C)[sp].m(A)[sp].m(U)}$$$$
TLR8 potentiation (NF-kB luciferase) (fold of resiquimod alone) (CTNNB1 [1]): 2.29 | TLR7 signal (NF-kB luciferase) (% of resiquimod alone) (CTNNB1 [2]): 70.7

RNA1{m(A)[sp].m(C)[sp].m(C)[sp].m(C)[sp].m(A)[sp].d(C)[sp].d(T)[sp].d(T)[sp].d(G)[sp].d(G)[sp].d(C)[sp].d(A)[sp].d(G)[sp].d(A)[sp].d(C)[sp].m(C)[sp].m(A)[sp].m(U)[sp].m(C)[sp].m(A)}$$$$
TLR8 potentiation (NF-kB luciferase) (fold of resiquimod alone) (CTNNB1 [1]): 2.74 | TLR7 signal (NF-kB luciferase) (% of resiquimod alone) (CTNNB1 [2]): 65.8

RNA1{m(A)[sp].m(C)[sp].m(U)[sp].m(G)[sp].m(C)[sp].d(A)[sp].d(T)[sp].d(T)[sp].d(C)[sp].d(T)[sp].d(G)[sp].d(G)[sp].d(G)[sp].d(C)[sp].d(C)[sp].m(A)[sp].m(U)[sp].m(C)[sp].m(U)[sp].m(C)}$$$$
TLR8 potentiation (NF-kB luciferase) (fold of resiquimod alone) (CTNNB1 [1]): 2.96 | TLR7 signal (NF-kB luciferase) (% of resiquimod alone) (CTNNB1 [2]): 73.2

RNA1{m(A)[sp].m(C)[sp].m(U)[sp].m(G)[sp].m(U)[sp].d(G)[sp].d(T)[sp].d(A)[sp].d(G)[sp].d(A)[sp].d(T)[sp].d(G)[sp].d(G)[sp].d(G)[sp].d(A)[sp].m(U)[sp].m(C)[sp].m(U)[sp].m(G)[sp].m(C)}$$$$
TLR8 potentiation (NF-kB luciferase) (fold of resiquimod alone) (CTNNB1 [1]): 3.43 | TLR7 signal (NF-kB luciferase) (% of resiquimod alone) (CTNNB1 [2]): 99.8

RNA1{m(A)[sp].m(G)[sp].m(A)[sp].m(U)[sp].m(C)[sp].d(T)[sp].d(G)[sp].d(G)[sp].d(C)[sp].d(A)[sp].d(G)[sp].d(C)[sp].d(C)[sp].d(C)[sp].d(A)[sp].m(U)[sp].m(C)[sp].m(A)[sp].m(A)[sp].m(C)}$$$$
TLR8 potentiation (NF-kB luciferase) (fold of resiquimod alone) (CTNNB1 [1]): 1.89 | TLR7 signal (NF-kB luciferase) (% of resiquimod alone) (CTNNB1 [2]): 55.4

RNA1{m(A)[sp].m(U)[sp].m(U)[sp].m(U)[sp].m(U)[sp].d(A)[sp].d(A)[sp].d(G)[sp].d(C)[sp].d(A)[sp].d(T)[sp].d(A)[sp].d(T)[sp].d(T)[sp].d(A)[sp].m(A)[sp].m(A)[sp].m(A)[sp].m(A)[sp].m(G)}$$$$
TLR8 potentiation (NF-kB luciferase) (fold of resiquimod alone) (CTNNB1 [1]): 2.37 | TLR7 signal (NF-kB luciferase) (% of resiquimod alone) (CTNNB1 [2]): 47

RNA1{m(C)[sp].m(A)[sp].m(A)[sp].m(U)[sp].m(G)[sp].d(G)[sp].d(G)[sp].d(A)[sp].d(G)[sp].d(A)[sp].d(A)[sp].d(T)[sp].d(A)[sp].d(A)[sp].d(A)[sp].m(G)[sp].m(C)[sp].m(A)[sp].m(G)[sp].m(C)}$$$$
TLR8 potentiation (NF-kB luciferase) (fold of resiquimod alone) (CTNNB1 [1]): 2.5 | TLR7 signal (NF-kB luciferase) (% of resiquimod alone) (CTNNB1 [2]): 73.7

RNA1{m(C)[sp].m(A)[sp].m(C)[sp].m(C)[sp].m(C)[sp].d(A)[sp].d(C)[sp].d(T)[sp].d(T)[sp].d(G)[sp].d(G)[sp].d(C)[sp].d(A)[sp].d(G)[sp].d(A)[sp].m(C)[sp].m(C)[sp].m(A)[sp].m(U)[sp].m(C)}$$$$
TLR8 potentiation (NF-kB luciferase) (fold of resiquimod alone) (CTNNB1 [1]): 1.12 | TLR7 signal (NF-kB luciferase) (% of resiquimod alone) (CTNNB1 [2]): 91.5

RNA1{m(C)[sp].m(A)[sp].m(G)[sp].m(A)[sp].m(U)[sp].d(A)[sp].d(G)[sp].d(C)[sp].d(A)[sp].d(C)[sp].d(C)[sp].d(T)[sp].d(T)[sp].d(C)[sp].d(A)[sp].m(G)[sp].m(C)[sp].m(A)[sp].m(C)[sp].m(U)}$$$$
TLR8 potentiation (NF-kB luciferase) (fold of resiquimod alone) (CTNNB1 [1]): 3.22 | TLR7 signal (NF-kB luciferase) (% of resiquimod alone) (CTNNB1 [2]): 126

RNA1{m(C)[sp].m(A)[sp].m(G)[sp].m(A)[sp].m(U)[sp].d(T)[sp].d(A)[sp].d(C)[sp].d(A)[sp].d(A)[sp].d(T)[sp].d(T)[sp].d(A)[sp].d(A)[sp].d(T)[sp].m(U)[sp].m(A)[sp].m(G)[sp].m(A)[sp].m(G)}$$$$
TLR8 potentiation (NF-kB luciferase) (fold of resiquimod alone) (CTNNB1 [1]): 2.76 | TLR7 signal (NF-kB luciferase) (% of resiquimod alone) (CTNNB1 [2]): 80.8

RNA1{m(C)[sp].m(A)[sp].m(U)[sp].m(A)[sp].m(U)[sp].d(T)[sp].d(A)[sp].d(A)[sp].d(A)[sp].d(A)[sp].d(A)[sp].d(G)[sp].d(G)[sp].d(A)[sp].d(A)[sp].m(A)[sp].m(C)[sp].m(U)[sp].m(A)[sp].m(A)}$$$$
TLR8 potentiation (NF-kB luciferase) (fold of resiquimod alone) (CTNNB1 [1]): 2.31 | TLR7 signal (NF-kB luciferase) (% of resiquimod alone) (CTNNB1 [2]): 108

RNA1{m(C)[sp].m(C)[sp].m(A)[sp].m(C)[sp].m(C)[sp].d(C)[sp].d(A)[sp].d(C)[sp].d(T)[sp].d(T)[sp].d(G)[sp].d(G)[sp].d(C)[sp].d(A)[sp].d(G)[sp].m(A)[sp].m(C)[sp].m(C)[sp].m(A)[sp].m(U)}$$$$
TLR8 potentiation (NF-kB luciferase) (fold of resiquimod alone) (CTNNB1 [1]): 0.99 | TLR7 signal (NF-kB luciferase) (% of resiquimod alone) (CTNNB1 [2]): 86.9

mC*mU*mU*mC*mU*dC*dT*dC*dT*dG*dG*dT*dC*dC*dC*mA*mU*mC*mC*mC
TLR8 potentiation (NF-kB luciferase) (fold of resiquimod alone) (LINC-PINT [3]): 2.92 | TLR7 signal (NF-kB luciferase) (% of resiquimod alone) (LINC-PINT [4]): 56.2

mC*mU*mU*mU*mA*dT*dA*dT*dT*dA*dC*dA*dA*dA*dG*mC*mU*mA*mC*mU
TLR8 potentiation (NF-kB luciferase) (fold of resiquimod alone) (LINC-PINT [3]): 2.11 | TLR7 signal (NF-kB luciferase) (% of resiquimod alone) (LINC-PINT [4]): 54.8

mG*mA*mU*mG*mG*dT*dT*dC*dC*dA*dG*dT*dC*dC*dC*mU*mC*mU*mU*mC
TLR8 potentiation (NF-kB luciferase) (fold of resiquimod alone) (LINC-PINT [3]): 0.84 | TLR7 signal (NF-kB luciferase) (% of resiquimod alone) (LINC-PINT [4]): 22.3

mG*mC*mA*mA*mG*dG*dC*dA*dG*dA*dG*dA*dA*dA*dC*mU*mC*mC*mA*mG
TLR8 potentiation (NF-kB luciferase) (fold of resiquimod alone) (LINC-PINT [3]): 1.45 | TLR7 signal (NF-kB luciferase) (% of resiquimod alone) (LINC-PINT [4]): 20

mG*mC*mG*mU*mA*dG*dT*dT*dT*dC*dT*dC*dT*dT*dC*mC*mU*mC*mC*mC
TLR8 potentiation (NF-kB luciferase) (fold of resiquimod alone) (LINC-PINT [3]): 1.86 | TLR7 signal (NF-kB luciferase) (% of resiquimod alone) (LINC-PINT [4]): 27.2

mG*mG*mG*mU*mC*dT*dC*dC*dT*dC*dC*dA*dC*dA*dC*mC*mC*mU*mU*mC
TLR8 potentiation (NF-kB luciferase) (fold of resiquimod alone) (LINC-PINT [3]): 0.87 | TLR7 signal (NF-kB luciferase) (% of resiquimod alone) (LINC-PINT [4]): 21.5

mG*mG*mU*mC*mC*dC*dA*dT*dC*dC*dC*dT*dT*dC*dT*mG*mC*mU*mG*mC
TLR8 potentiation (NF-kB luciferase) (fold of resiquimod alone) (LINC-PINT [3]): 1.28 | TLR7 signal (NF-kB luciferase) (% of resiquimod alone) (LINC-PINT [4]): 20.8

mG*mG*mU*mC*mU*dC*dC*dT*dC*dC*dA*dC*dA*dC*dC*mC*mU*mU*mC*mU
TLR8 potentiation (NF-kB luciferase) (fold of resiquimod alone) (LINC-PINT [3]): 1.29 | TLR7 signal (NF-kB luciferase) (% of resiquimod alone) (LINC-PINT [4]): 23.7

Reference: the OligoGym collection
